The values that follow come from patent US20250295725A1, “BONE TARGETED TREATMENT IN OSTEOGENESIS IMPERFECTA” (PURDUE RESEARCH FOUNDATION, priority 2022, published 2025).

Type in all cases: in vivo
Experiment [1] concerns Colla2^oim mouse model of type 1(+/−) OI. The experiment in a line: 4-point bend to failure of the non-fractured contralateral femurs, type 1 OI mice. On the procedure:
FIGS. 11 and 12 show the impact of treatment with Compound 1 on bone strength in a Colla2^0im mouse model of type!(+/−) OI. 12 week old female mice underwent a stabilized midshaft femur fracture model via an osteotomy. Type 1 OI mice were treated twice a week for 5 weeks post fracture. Bone strength was evaluated via 4-point bend to failure of the non-fractured contralateral femurs. The max load (FIG. 11) evaluates the max load the femur withstood prior to fracture in the biomechanical evaluation. Work to fracture (FIG. 12) evaluates the total amount of energy the femur adsorbed prior to fracture in the biomechanical evaluation. Bone targeted anabolic treatment dramatically improves bone strength in the contralateral femurs.
FIGS. 19 and 20 show the impact of treatment with Compound 3 on bone strength in a Colla2^oim mouse model of type 1(+/−) OI. 12 week old female mice underwent a stabilized midshaft femur fracture model via an osteotomy. Type 1 OI mice were treated daily subcutaneously for 5 weeks post fracture. Bone strength was evaluated via 4-point bend to failure of the non-fractured contralateral femurs. The max load (FIG. 19) evaluates the max load the femur withstood prior to fracture in the biomechanical evaluation. Work to fracture (FIG. 20) evaluates the total amount of energy the femur adsorbed prior to fracture in the biomechanical evaluation. Bone targeted anabolic treatment dramatically improves bone strength in the contralateral femurs.

The test system is the same in experiment [2]. The experiment in a line: Fracture callus mineralization by MicroCT after stabilized midshaft femur fracture (osteotomy), type 1 OI mice. How it is done:
(§1) After reaching skeletal maturity, 12 weeks old female mice underwent a stabilized midshaft femur fracture model via an osteotomy. Type 1 and Type 3 OI mice were treated twice a week for 5 weeks and 6 weeks respectively post fracture. Fracture callus mineralization was evaluated via quantification of high resolution MicroCT(scanco) images of the fracture callus.
After reaching skeletal maturity, 12 weeks old mice underwent a stabilized midshaft femur fracture model via an osteotomy. Type 1 OI mice were treated daily subcutaneously for 5 weeks post fracture. Fracture callus mineralization was evaluated via quantification of high resolution MicroCT(scanco) images of the fracture callus. In some instances, mice were dosed (daily) with 38 nmol/kg/d of Compound 4, Compound 3, or PBS vehicle control.
After reaching skeletal maturity 12 weeks old mice underwent a stabilized midshaft femur fracture model via an osteotomy. Type 1 OI mice were treated daily subcutaneously for 5 weeks post fracture. Fracture callus mineralization was evaluated via quantification of high resolution MicroCT(scanco) images of the fracture callus.
(§2) In vivo experiments were conducted in heterozygous and homozygous Colla2^oim (Type 1 OI (+/−) and Type 3 OI (−/−)) mice of both genders. After reaching skeletal maturity, 12 weeks old female and/or male mice underwent a stabilized midshaft femur fracture model via an osteotomy. OI mice were subcutaneously treated (with saline control or a compound provided herein, such as Ab46-D-Glu20) twice a week 5 or 6 weeks post fracture. Following a 5-week study in heterozygous mice and 6-week in homozygous mice, fracture callus mineralization/densities were measured using quantification of high resolution MicroCT(scanco) images of the fracture callus.

For experiment [3] the test system is unchanged. Nature of the experiment: 4-point bend to failure of the fractured femurs, 12 week old type 1 OI mice. The settings on record: for increase in max load it takes a bone to fracture as compared to control: fractured femurs, daily subcutaneously 38 nmol/kg/d for 5 weeks, Type 1 OI mice treated (FIG. 18). On the procedure:
(§3) FIGS. 13 and 14 show the impact of treatment with Compound 1 on bone fracture stiffness in a Colla2^oim mouse model of type 3(−/−) and type 1(−/+) osteogenesis Imperfecta. After reaching skeletal maturity, 12 weeks old female mice underwent a stabilized midshaft femur fracture model via an osteotomy and type 1 and Type 3 OI mice were treated twice a week for 5 and 6 weeks respectively post fracture. Fracture strength was evaluated via 4-point bend to failure of the fractured femurs. Modulus evaluates the stiffness of the femur during the biomechanical evaluation. A low stiffness is indicative of brittleness that leads to leads to future fractures. The improvement in stiffness that occurred in the fracture callus are indicative of a healthier bone that is less brittle and will be less likely to fracture in the future. In some instances, low bone stiffness is indicative of brittleness in the bone, such as being associated with higher risk of fracture. In some instances, higher bone stiffness is indicative of healthier bone, such as bone that is less brittle and less prone to fracture. In some instances, the majority of the compound localized into the fracture callus (e.g., due to the large amounts of exposed hydroxyapatite at the fracture site and that DE20 can bind to hydroxyapatite via chelation of the calcium component). In some instances, the elevated sites of resorption throughout the OI type 3 skeleton also had some moderate accumulation (e.g., which was responsible for the non-fracture skeletal improvements observed in FIGS. 13 and 14).
After reaching skeletal maturity, 12 weeks old female mice underwent a stabilized midshaft femur fracture model via an osteotomy. Type 1 and Type 3 OI mice were treated twice a week for 5 weeks and 6 weeks respectively post fracture. Fracture strength was evaluated via 4-point bend to failure of the fractured femurs. The contralateral untreated femurs are presented here to show the restoration to previous non-fracture strength during treatment. […] Further, Compound 1 increases the max load (in Newtons) it takes a bone to fracture in mice with Type 1 OI by approximately 70% (as compared to bone with saline). […]

In experiment [4] the test system is Colla2^oim mouse model of type 3(−/−) OI. The experiment in a line: Fracture callus mineralization by MicroCT after stabilized midshaft femur fracture (osteotomy), type 3 OI mice. How it is done: In some instances, ability of an anabolic linked to a hydroxyapatite ligand to accelerate the repair of fractures in a Type 3 OI disease state was analyzed. Type 3 is the most severe non-lethal form of OI and experiences the most fractures in the human population. In some instances, Type 3 was modeled in a Colla2oim (−/−) mouse (e.g., which is a well-established model of OI Type 3), such as described elsewhere herein (e.g., see the examples). In some instances, the compound is distally administered and accumulates locally at a fracture site.
After reaching skeletal maturity, 12 weeks old female mice underwent a stabilized midshaft femur fracture model via an osteotomy. Type 3 OI mice were treated twice a week 6 weeks post fracture. Fracture callus mineralization was evaluated via quantification of high resolution MicroCT(scanco) images of the fracture callus.
as §1, §2

Experiment [5] concerns Colla2^oim mouse model of type 1(+/−) OI. The experiment in a line: 4-point bend to failure of the fractured femurs, 6 week old pediatric type 1 OI mice. As to conditions: 6 week old pediatric mice. On the procedure: In some instances, OI affects children from birth and many of the fractures in an individual's life with OI occurring during adolescence. In some embodiments, the individual has pediatric OI. FIGS. 7 and 8 show the impact of treatment with Compound 1 on bone fracture strength in a Colla2^oim mouse model of type 1(+/−) OI. 6 week old pediatric Mice underwent a stabilized midshaft femur fracture model via an osteotomy. Type 1 OI mice were treated twice a week for 4 weeks post fracture. Fracture strength was evaluated via 4-point bend to failure of the fractured femurs. The max load (FIG. 7) evaluates the max load the femur withstood prior to fracture in the biomechanical evaluation. Work to fracture (FIG. 8) evaluates the total amount of energy the femur adsorbed prior to fracture in the biomechanical evaluation.

The test system of experiment [6] is Colla2^oim mouse model of type 3(−/−) OI. Nature of the experiment: 4-point bend to failure of the fractured femurs, type 3 OI mice. How it is done:
After reaching skeletal maturity, 12 weeks old female mice underwent a stabilized midshaft femur fracture model via an osteotomy. Type 3 OI mice were treated twice a week for 6 weeks post fracture. Fracture strength was evaluated via 4-point bend to failure of the fractured femurs. The max load evaluates the max load the femur withstood prior to fracture in the biomechanical evaluation. The contralateral untreated femurs are presented here to show the restoration to previous non-fracture strength during treatment.
After reaching skeletal maturity, 12 weeks old female mice underwent a stabilized midshaft femur fracture model via an osteotomy. Type 3 OI mice were treated twice a week for 6 weeks post fracture. Fracture strength was evaluated via 4-point bend to failure of the fractured femurs. Work to fracture evaluates the total amount of energy the femur adsorbed prior to fracture in the biomechanical evaluation. The contralateral untreated femurs are presented here to show the restoration to previous non-fracture strength during treatment.
as §3
After reaching skeletal maturity, 12 weeks old female mice underwent a stabilized midshaft femur fracture model via an osteotomy. Type 1 and Type 3 OI mice were treated twice a week for 5 weeks and 6 weeks respectively post fracture. Fracture strength was evaluated via 4-point bend to failure of the fractured femurs. The contralateral untreated femurs are presented here to show the restoration to previous non-fracture strength during treatment. […] Further, Compound 1 increases the max load (in Newtons) it takes a bone to fracture in mice with Type 1 OI by approximately 70% (as compared to bone with saline).

Setting [7] is: 12 weeks old mice, daily subcutaneously 38 nmol/kg/d for 5 weeks (FIG. 17).

In the case of “AVSEHQLLHDKGKSIQDLIUGTFFLHHLIAEIHTAEnLATSEVSPNSeeeeeeeeeeeeeeeeeeee [Compound 3]”, the “more max load to fracture than bone in control mice” value in experiment [1] (contralateral femurs, daily subcutaneously 5 weeks (FIG. 19)) is listed as “approximately 10%”. In addition, in experiment [1] (non-fractured contralateral femurs, daily subcutaneously 5 weeks (FIG. 20)), the “higher work to fracture, non-fractured bone vs control mice” value is reported as “approximately 40%”. Besides, the “improved fracture callus mineralization as compared to the saline control” value in experiment [2] (setting [7]) was “approximately 300%”. In experiment [3], the “increase in max load it takes a bone to fracture as compared to control” value is “approximately 100%”.
As to “AVSEHQLLHDKGKSIQDLRRRELLEKLLxKLHTAEIRATSEVSPNSeeeeeeeeeeeeeeeeeeee [Compound 1]”, the “more max load to fracture, non-fractured bone vs control mice” value in experiment [1] (non-fractured contralateral femurs, twice a week 5 weeks (FIG. 11)) is listed as “approximately 30%”. Further, the “higher work to fracture, non-fractured bone vs control mice” value in experiment [1] (non-fractured contralateral femurs, twice a week 5 weeks (FIG. 12)) is “approximately 40%”. For the same substance, the “improved fracture callus mineralization as compared to the saline control” value in experiment [2] (12 weeks old female mice, treated twice a week 5 weeks post fracture (FIG. 4)) is “approximately 50%”; in experiment [4] (Type 3 OI, 12 weeks old female mice, treated twice a week 6 weeks post fracture (FIG. 1, FIG. 4)) it was “approximately 100%”. In addition, in experiment [4] (Colla2oim mouse model), the “radiographic healing over the control” value is listed as “significant improvement”. Moreover, the “median microCT images of fractured bones vs saline control” value in experiment [4] (fractured bones of FIGS. 4 and 5 (Type 1 and Type 3 OI), composite of 20 microCT slices (FIG. 6)) was “healthier and denser bone”. Further, the “increase in bone volume fraction over the saline groups” value in experiment [4] (mice administered compound vs saline groups) was over 85%. For the same substance, the “more max load to fracture than fractured bone in control mice” value in experiment [3] (Type 1 OI, 12 week old female mice, twice a week 5 weeks (FIG. 10)) is listed as 80%; in experiment [3] (Type 1 OI, 12 week old male mice, twice a week 5 weeks (FIG. 9)), “approximately 70%”. Also, in experiment [3] (Type 1 OI, 12 weeks old female mice, twice a week 5 weeks (FIG. 5)), the “increase in max load it takes a bone to fracture as compared to bone with saline” value is “approximately 70%”. The “more stiff (modulus) than fractured bone of control mice” value is reported as “approximately 60%” in experiment [3] (Type 1 OI, fractured bone, twice a week 5 weeks (FIG. 14)) and “approximately 100%” in experiment [6] (Type 3 OI, fractured bone, twice a week 6 weeks (FIG. 13)). The “differential response between sexes (fracture strength)” value in experiment [3] (Type 1 OI, male vs female mice, twice a week 5 weeks (FIGS. 9, 10)) is listed as “No differential response between sexes”. In addition, in experiment [3] (Type 1 OI, treated fractured bone vs unfractured control bone (FIG. 14)), the “more stiff (modulus) than unfractured bone of control mice” value is listed as “approximately 10%”. Further, in experiment [5] (twice a week 4 weeks (FIG. 7)), the “higher max load to fracture than saline control” value is “approximately 160%”. Further, the “higher work to fracture than saline control” value in experiment [5] (twice a week 4 weeks (FIG. 8)) is listed as “approximately 80%”. Further, the “force required to refracture bone” value in experiment [6] (Colla2oim mouse model, mechanical testing) is on record as “dramatically higher force”. For the same substance, the “increase in max load it takes a bone to fracture as compared to saline bone” value in experiment [6] (Type 3 OI, fractured femur, twice a week 6 weeks (FIG. 2, FIG. 5)) is on record as “approximately 300%”. In addition, the “increase in work to fracture as compared to bone repaired with saline” value in experiment [6] (Type 3 OI, fractured femur, twice a week 6 weeks (FIG. 3)) was “approximately 150%”. The “more stiff (modulus) than non-fractured bone of control mice” value in experiment [6] (Type 3 OI, treated fractured bone vs non-fractured control bone (FIG. 13)) was “approximately 50%”. Moreover, the “increase in work to fracture as compared to non-fractured bone” value in experiment [6] (Type 3 OI, treated fractured femur vs non-fractured bone (FIG. 3)) was “approximately 70%”.
For the substance “eeeeeeeeee(AEEA)4 DLTIDDSYWYRI (EEEEEEEEEEXDLTIDDSYWYRI; D-Glu targeting ligand, 4 AEEA spacer; SITE 1..10 D-glutamic acid; SITE 11 2,2-amino ethoxy ethoxy acetic acid; REPEAT 11 repeated 4 times) [Compound 4, Ln2_P3 motif with N-terminally-attached 4-mini-PEG spacer and D-glutamic acid targeting ligand]”, the “improved fracture callus mineralization as compared to the saline control” value in experiment [2] (setting [7]) is recorded as “approximately 200%”. Moreover, in experiment [3], the “increase in max load it takes a bone to fracture as compared to control” value is on record as “approximately 200%”.
